The source of these data is publication PMC11181486, “Nonsymmetrically Substituted 1,1′-Biphenyl-Based Small Molecule Inhibitors of the PD-1/PD-L1 Interaction” (ACS Medicinal Chemistry Letters, 2024).

pEC50, pIC50: −log10 of the molar value. Read-outs that look alike come from different tables or passages of the source.

Data set [1] deals with T1, PD-1/PD-L1 (Homo sapiens, UniProt Q9NZQ7). Put plainly: Homogeneous time-resolved fluorescence (HTRF) PD-1/PD-L1 assay (CisBio kit). Conditions: for remaining activity at 0.005 µM: 2 h, read-out: HTRF Fraction of the undissociated protein complex. The data set is classed as binding. Also on record: Tag1 or Tag2 (kit's undisclosed tag); purchased CisBio. As for the experimental part:
The certified CisBio kit was used to conduct the HTRF assay, adhering to the manufacturer’s guidelines. The assay setup comprised hPD-1, hPD-L1, anti-Tag1 tagged with Europium cryptate (HTRF donor), and anti-Tag2 tagged with XL665 (HTRF acceptor). The experiments utilized final concentrations of 5 nM hPD-L1 and 50 nM hPD-1 in a 20 μL total volume performed in triplicate. Per the CisBio instructions, all components were combined, the plate was incubated at ambient temperature for 2 h, and the TR-FRET (time-resolved fluorescence energy transfer) was carried out using the Tecan Spark 20M. The negatives in the acquired data were subtracted for background, the positives were standardized, and then the data were averaged.
of 50 mM of the compound. Samples were then diluted to 50 nM and used for measurements.
Target sequence in this assay (Q9NZQ7 19-238 limits assumed): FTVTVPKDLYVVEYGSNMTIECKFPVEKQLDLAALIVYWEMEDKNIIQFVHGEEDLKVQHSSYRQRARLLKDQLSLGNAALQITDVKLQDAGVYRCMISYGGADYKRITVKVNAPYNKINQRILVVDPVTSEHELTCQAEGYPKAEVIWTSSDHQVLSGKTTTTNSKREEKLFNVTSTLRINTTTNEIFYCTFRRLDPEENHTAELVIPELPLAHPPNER

The target of data set [2] is T1, PD-1/PD-L1. Put plainly: cell-based. Also on record: host or cells: PD-L1+ aAPC/CHO-K1 cells; PD-1 effector Jurkat cells. The protocol: The PD-1/PD-L1 immune checkpoint bioassay (PD-1/PD-L1 Bioassay, Promega) was conducted according to the manufacturer’s protocol. PD-L1+ aAPC/CHO-K1 cells were seeded at a density of […] in 100 μL of medium [Ham’s F12, 10% fetal bovine serum (FBS)] in 96-well white flat-bottomed plates and incubated overnight at 37 °C in the presence of 5% CO2. The next day, the medium was removed, and serial dilutions of small molecule inhibitors were added at 40 μL per well in assay buffer (RPMI1640 + 1% FBS + 1% DMSO). […] The cells were cocultured for 6 h at 37 °C with 5% CO2 followed by a 5 min equilibration at room temperature. Bio-Glo Reagent (Promega) was prepared and added at 80 μL per well. After a 15 min incubation at room temperature, luminescence was measured using a Tecan Spark microplate reader. Data are presented as fold induction of luminescence relative to DMSO-treated cells. EC50 values were calculated using the log(inhibitor) vs response variable slope (four-parameter) analysis model with GraphPad Prism software.
Target sequence in this assay (Q9NZQ7 19-290): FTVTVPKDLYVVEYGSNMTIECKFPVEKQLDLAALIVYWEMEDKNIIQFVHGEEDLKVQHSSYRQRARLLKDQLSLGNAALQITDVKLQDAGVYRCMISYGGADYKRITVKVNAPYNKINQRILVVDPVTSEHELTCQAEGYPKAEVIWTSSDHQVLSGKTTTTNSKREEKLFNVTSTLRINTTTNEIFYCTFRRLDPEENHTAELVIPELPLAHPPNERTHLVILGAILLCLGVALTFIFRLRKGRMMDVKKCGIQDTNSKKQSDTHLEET

A short description of data set [3]: Solubility of the compounds (visual evaluation and A600 of dilutions). The data set is classed as physicochemical. Conditions: for A600 measurement (averaged from 2 reps): absorbance at 600 nm, 96-well plate, blank 0.0472, values in parentheses unreliable (precipitate); for solubility: kinetic from dmso stock, dilutions from DMSO stock, visually evaluated. The protocol: compound was 500 nM). The dilutions were then visually evaluated according to the following […]
+++ clear solution, no precipitation
++ slight turbidity, no precipitate
+ visible turbidity, no precipitate.
+/- strong turbidity, no precipitation.
- visible precipitation and/or visible precipitation in the original 100% DMSO solution.
The dilutions prepared in this way were applied to a 96-well plate and the absorbance measured […]
at a wavelength of 600 nm.
Table S2, Blank of 10 Measurements.
Table S2. Solubility of the compounds

Data set [4] concerns the target T2, hPD-L1 (human PD-L1) (Homo sapiens, UniProt Q9NZQ7).
T2 construct: The human PD-L1 IgV domain (residues 18–134, C-terminal His-tag) was expressed and purified; His-tag (C); made in house
Nature of the data set: 1H NMR titration with hPD-L1. To be noted: molar ratio protein to compound 1:1. The class given is binding. As for the experimental part:
Representative molecules were evaluated for their interaction with PD-L1 by means of an ^1H NMR titration experiment.

Data set [5] has as its target T3, hPD-1/hPD-L1 complex (Homo sapiens, UniProt Q9NZQ7).
T3 construct: The human PD-L1 IgV domain (residues 18–134, C-terminal His-tag) was expressed and purified; His-tag (C); made in house
Put plainly: PD-1/PD-L1 NMR-based antagonist-induced dissociation assay (AIDA). The data set is classed as binding. Conditions: complex of hPD-1/hPD-L1 with compound, 1:1 molar ratio protein to compound. As for the experimental part: In addition, we performed a PD-1/PD-L1 NMR-based antagonist-induced dissociation assay (AIDA).[42],[43] The AIDA assay was performed by adding a slight molar excess of PD-L1 to PD-1, which causes ^1H NMR signals to broaden corresponding to complex formation (Figure 2). […] However, in Figure 2 (purple), these are obscured by the sharper NMR signals of monomeric PD-1 released from the PD-L1/PD-1 complex.
Figure 2 NMR-based AIDA assay showing that a compound displaces PD-1 from PD-L1.

The target of data set [6] is T1, PD-1/PD-L1. Also on record: host or cells: PD-L1+ aAPC/CHO-K1 cells; PD-1 effector Jurkat cells. To be noted: Figure S2B; ref Koblish et al.; cited from earlier work.
Target sequence in this assay (Q9NZQ7 19-290): as above
Where [7] appears, read: at the 5 nM concentration of the inhibitor, 5 nM hPD-L1, 50 nM hPD-1.
Where [8] appears, read: PD-L1+ aAPC/CHO-K1 cells cocultured 6 h with PD-1 effector Jurkat cells, read-out: PD-1/PD-L1 blockade, NFAT reporter bioassay EC50.

T2 sequence (Q9NZQ7 18-134): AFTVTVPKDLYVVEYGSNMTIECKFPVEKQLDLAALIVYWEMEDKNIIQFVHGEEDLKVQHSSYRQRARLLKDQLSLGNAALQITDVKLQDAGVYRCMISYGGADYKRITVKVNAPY
T3 sequence (Q9NZQ7 18-134, one chain of several): as the sequence (Q9NZQ7 18-134) above

On to `Cc1c(COc2cc(OCc3cccc(C#N)c3)c(CN3C[C@H](O)C[C@@H]3C(=O)O)cc2Cl)cccc1-c1ccc2c(c1)OCCO2` [BMS-1166, reference compound], for which the “HTRF Fraction of the undissociated protein complex” value in data set [1] (setting [7]) turned out to be 0.59.
As for `Cc1c(NC(=O)c2ccc(CNCCO)cn2)cccc1-c1cccc(NC(=O)c2ccc(CNCCO)cn2)c1C` [Cmpd A, reference compound], the remaining activity at 0.005 µM in data set [1] (setting [7]) was 18%. In data set [2] (setting [8]), the pEC50 was 7.83.
As to `Cc1c(NC(=O)c2ccc(CN[C@@H]3CCC[C@H]3O)cn2)cccc1-c1cccc(NC(=O)c2ccc(CN(C)CCO)cn2)c1C` [Compound 1], in data set [3], the “A600 measurement (averaged from 2 reps)” value came to 0.5138 and the solubility is < 500 µM.
As to `Cc1c(NC(=O)c2ccc(CN[C@@H](C)CO)cn2)cccc1-c1cccc(NC(=O)c2ccc(CN(C)CCO)cn2)c1C` [Compound 2], the pIC50 in data set [1] is 8.84. Besides, the remaining activity at 0.005 µM in data set [1] (setting [7]) worked out at 42%. Moreover, in data set [3], the “A600 measurement (averaged from 2 reps)” value was found to be 0.4023 and the solubility was < 500 µM. In data set [2] (setting [8]), the pEC50 was 7.66.
In the case of `Cc1c(NC(=O)c2ccc(CN[C@@H](C)CO)cn2)cccc1-c1cccc(NC(=O)c2ccc(CN(C)CCO)cn2)c1C.Cl.Cl.Cl` [Compound 2a], in data set [3], the “A600 measurement (averaged from 2 reps)” value was 0.1517 and the solubility was < 500 µM. Besides, the pEC50 in data set [2] (setting [8]) is 7.60.
In the case of `Cc1c(NC(=O)c2ccc(CNCCCO)cn2)cccc1-c1cccc(NC(=O)c2ccc(CN(CCO)CCO)cn2)c1C` [Compound 3], in data set [3], the “A600 measurement (averaged from 2 reps)” value was found to be 0.2786 and the solubility is < 500 µM. For the same compound, the pEC50 in data set [2] was ~6.70. Moreover, the pEC50 in data set [2] (setting [8]) is 6.60.
Turning to `Cc1c(NC(=O)c2ccc(CN[C@@H]3CCC[C@H]3O)cn2)cccc1-c1cccc(NC(=O)c2ccc(CN(CCO)CCO)cn2)c1C` [Compound 4], in data set [3], the “A600 measurement (averaged from 2 reps)” value is given as 0.2271 and the solubility is < 500 µM.
As for `Cc1c(NC(=O)c2ccc(CNCCCO)cn2)cccc1-c1cccc(NC(=O)c2ccc(CN(C)C(CO)CO)cn2)c1C` [Compound 5], in data set [3], the “A600 measurement (averaged from 2 reps)” value is listed as 0.04735 and the solubility is < 500 µM. Further, the pEC50 in data set [2] was ~6.70. Further, the pEC50 in data set [2] (setting [8]) was 6.96.
As for `COC(=O)[C@H](C)NCc1ccc(C(=O)Nc2cccc(-c3cccc(NC(=O)c4ccc(CN5CCCC5)cn4)c3C)c2C)nc1` [Compound 6], in data set [3], the “A600 measurement (averaged from 2 reps)” value was 0.0627 and the solubility is < 500 µM.
The like results for `Cc1c(NC(=O)c2ccc(CNCCCO)cn2)cccc1-c1cccc(NC(=O)c2ccc(CN(C)CCO)cn2)c1C` [Compound 7] were, in that order, 0.3466 and < 500 µM.
For `Cc1c(NC(=O)c2ccc(CN(C)CCO)cn2)cccc1-c1cccc(NC(=O)c2ccc(CN(CCO)CCO)cn2)c1C` [Compound 8] the same measures were 0.459 and < 500 µM.
Turning to `Cc1c(NC(=O)c2ccc(CNCCCO)cn2)cccc1-c1cccc(NC(=O)c2ccc(CN3CCC(O)CC3)cn2)c1C` [Compound 9], the remaining activity at 0.005 µM in data set [1] (setting [7]) came out at 26%. Besides, in data set [3], the “A600 measurement (averaged from 2 reps)” value is given as 0.09395 and the solubility is < 500 µM. In data set [2], the pEC50 was < 6.74. For the same compound, in data set [2] (setting [8]), the pEC50 is 6.73.
As for `Cc1c(NC(=O)c2ccc(CN[C@@H](C)CO)cn2)cccc1-c1cccc(NC(=O)c2ccc(CN3CCC(O)CC3)cn2)c1C` [Compound 10], the remaining activity at 0.005 µM in data set [1] (setting [7]) was determined as 30%. For the same compound, the “A600 measurement (averaged from 2 reps)” value in data set [3] stood at 0.1308. For the same compound, the solubility in data set [3] was < 500 µM. Also, the pEC50 was < 6.74 in data set [2] and 6.54 in data set [2] (setting [8]).
The like results for `Cc1c(NC(=O)c2ccc(CN[C@@H]3CCC[C@H]3O)cn2)cccc1-c1cccc(NC(=O)c2ccc(CN3CCC(O)CC3)cn2)c1C` [Compound 11] were, in that order, 43%, 0.1117, < 500 µM, < 6.74 and 6.26.
Take `Cc1c(NC(=O)c2ccc(CNCCCO)cn2)cccc1-c1cccc(NC(=O)c2ccc(CN[C@@H]3CCC[C@H]3O)cn2)c1C` [Compound 12]: in data set [3], the “A600 measurement (averaged from 2 reps)” value is recorded as 0.0476 and the solubility is > 500 µM.
As for `Cc1c(NC(=O)c2ccc(CN[C@@H](C)CO)cn2)cccc1-c1cccc(NC(=O)c2ccc(CN[C@@H]3CCC[C@H]3O)cn2)c1C` [Compound 13], in data set [3], the “A600 measurement (averaged from 2 reps)” value worked out at 0.1827 and the solubility was < 500 µM.
Consider `Cc1c(NC(=O)c2ccc(CNCCCO)cn2)cccc1-c1cccc(NC(=O)c2ccc(CN[C@@H](C)CO)cn2)c1C` [Compound 14], for which the “effect on hPD-L1 1H NMR lines (broadening)” value (shortened to “effect on hPD-L1 1H NMR lines”) in data set [4] is given as “oligomerization”. In data set [3], the “A600 measurement (averaged from 2 reps)” value amounted to 0.05315 and the solubility was > 500 µM.
For `Cc1c(NC(=O)c2ccc(CNCCO)cn2)cccc1-c1cccc(NC(=O)c2ccc(CNCCNS(C)(=O)=O)cn2)c1C` [Compound 16], in data set [3], the “A600 measurement (averaged from 2 reps)” value is 0.0494 and the solubility was > 500 µM.
With `Cc1c(NC(=O)c2ccc(CNCCO)cn2)cccc1-c1cccc(NC(=O)c2ccc(CNCCCNS(C)(=O)=O)cn2)c1C` [Compound 17], the “effect on hPD-L1 1H NMR lines” value in data set [4] is on record as “oligomerization”. Moreover, in data set [3], the “A600 measurement (averaged from 2 reps)” value amounted to 0.2217 and the solubility is < 500 µM. The pEC50 in data set [2] (setting [8]) was 7.18.
In the case of `Cc1c(NC(=O)c2ccc(CNCCO)cn2)cccc1-c1cccc(NC(=O)c2ccc(CNCCCNS(C)(=O)=O)cn2)c1C.Cl.Cl.Cl.Cl` [Compound 17a], in data set [1], the pIC50 is 8.51. Besides, in data set [1] (5 nM inhibitor concentration), the “dissociation of the PD-1/PD L1 complex (HTRF)” value was 83% and the “undissociated complex in the HTRF assay” value came out at 17%. Further, the “effect on hPD-L1 1H NMR lines” value in data set [4] is “oligomerization”. Moreover, in data set [3], the “A600 measurement (averaged from 2 reps)” value is listed as 0.2848 and the solubility is < 500 µM. Also, the pEC50 in data set [2] (setting [8]) was 7.12. Besides, in data set [5], the “AIDA rescue percentage of the PD-1 signal” value worked out at 100%.
For `Cc1c(Nc2nccc3cc(CN4CC[C@@H](O)C4)cnc23)cccc1-c1cccc(-c2nc3cc(CN4CC[C@@H](C(=O)O)C4)cc(C#N)c3o2)c1C` [INCBO86550], in data set [6], the pEC50 is 7.67.
